# Literature values, collected in patent US12065428B2, “Anti-viral compounds” (Aligos Therapeutics, Inc., priority 2021, dated 2024).
# Columns and labels:
# [1] = tested on: SARS-CoV-2; conditions: cited from earlier work
# [2] = target: 3CLpro (Severe acute respiratory syndrome coronavirus 2, UniProt P0DTD1); conditions: cited from earlier work
compound,measurement,setting,value
CN1CCN(C(=O)N[C@@H](Cc2ccccc2)C(=O)N[C@H](/C=C/S(=O)(=O)c2ccccc2)CCc2ccccc2)CC1 [Example K117777],antiviral effect when TMPRSS2 was expressed,[1]; A549-ACE2 expressing TMPRSS2 (Steuten et al.),abolished
same,inhibition of SARS-CoV-2,"[1]; VeroE6, A549-ACE2 and/or HeLa-ACE2 (Mellott et al.)",potent inhibition
same,inhibitory effect on the 3CLpro,[2],lacks an inhibitory effect
